Data taken from PubChem BioAssay AID328 (DTP/NCI, 2004).
Values joined by “and” are separate entries in the source; they are usually repeats but may differ in a detail not shown here. Equal values may be shown once. Toxic doses and inconclusive results are not listed. How the source made its calls: active means survival T/C of 150% or more; inactive means T/C below 125% in these data.

Test system: BDF1 mice, P388 leukemia ip, median survival T/C
Experiment: NCI In Vivo Anticancer Drug Screen. Data for tumor model P388 Leukemia (intraperitoneal) in B6D2F1 (BDF1) mice
Settings: endpoint: median survival time, higher = longer survival
How it was run: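 In tumour-bearing mice, survival after compound treatment is set against the vehicle group and given as a quotient.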

[1] = dose: 100.0 mg/kg/injection, schedule: Q04DX003 (ip), vehicle: saline with Tween-80
[2] = dose: 400.0 mg/kg/injection, schedule: Q04DX003 (ip), vehicle: saline with Tween-80
[3] = dose: 100.0 mg/kg/injection, schedule: Q01DX009 (ip), vehicle: saline with Tween-80
[4] = dose: 200.0 mg/kg/injection, schedule: Q01DX009 (ip), vehicle: saline with Tween-80

Measured: T/C

CCOC(=O)c1cc([N+](=O)[O-])c(C)s1
inactive: dose: 100.0 mg/kg/injection, schedule: Q01DX009 (sc), vehicle: olive oil, sesame oil, peanut oil 100 % of control | dose: 100.0 mg/kg/injection, schedule: Q04DX003 (sc), vehicle: olive oil, sesame oil, peanut oil 95 % of control | dose: 200.0 mg/kg/injection, schedule: Q01DX009 (sc), vehicle: olive oil, sesame oil, peanut oil 91 % of control | dose: 200.0 mg/kg/injection, schedule: Q04DX003 (sc), vehicle: olive oil, sesame oil, peanut oil 95 % of control | dose: 400.0 mg/kg/injection, schedule: Q01DX009 (sc), vehicle: olive oil, sesame oil, peanut oil 100 % of control | dose: 400.0 mg/kg/injection, schedule: Q04DX003 (sc), vehicle: olive oil, sesame oil, peanut oil 100 % of control

COc1ccc(C(N)C(=O)O)cc1 (centres undefined)
inactive: dose: 100.0 mg/kg/injection, schedule: Q01DX001 (ip), vehicle: Klucel (hydroxypropylcellulose) (HPC) 100 % of control | dose: 200.0 mg/kg/injection, schedule: Q01DX001 (ip), vehicle: Klucel (hydroxypropylcellulose) (HPC) 109 % of control | dose: 400.0 mg/kg/injection, schedule: Q01DX001 (ip), vehicle: Klucel (hydroxypropylcellulose) (HPC) 109 % of control

CC(C)NC(=O)c1ccccc1-[s+]1c2ccccc2c(=O)n1C(C)C (centres undefined)
inactive: [1] 94 % of control | dose: 200.0 mg/kg/injection, schedule: Q04DX003 (ip), vehicle: saline with Tween-80 96 % of control | [2] 96 % of control

CC(C)(C)OC(=O)NNC(=O)C(CSC(c1ccccc1)c1ccccc1)N1C(=O)c2ccccc2C1=O (centres undefined)
inactive: dose: 100.0 mg/kg/injection, schedule: Q04DX003 (ip), vehicle: Klucel (hydroxypropylcellulose) (HPC) 95 % of control | dose: 200.0 mg/kg/injection, schedule: Q04DX003 (ip), vehicle: Klucel (hydroxypropylcellulose) (HPC) 100 % of control | dose: 400.0 mg/kg/injection, schedule: Q04DX003 (ip), vehicle: Klucel (hydroxypropylcellulose) (HPC) 90 % of control

COC(=O)C(NC=O)C(=O)OC
inactive: dose: 100.0 mg/kg/injection, schedule: Q01DX009 (ip), vehicle: saline 100 % of control | dose: 100.0 mg/kg/injection, schedule: Q04DX003 (ip), vehicle: saline 100 % of control | dose: 200.0 mg/kg/injection, schedule: Q01DX009 (ip), vehicle: saline 114 % of control | dose: 200.0 mg/kg/injection, schedule: Q04DX003 (ip), vehicle: saline 90 % of control | dose: 400.0 mg/kg/injection, schedule: Q01DX009 (ip), vehicle: saline 100 % of control | dose: 400.0 mg/kg/injection, schedule: Q04DX003 (ip), vehicle: saline 90 % of control

C[N+]1(C)N=C([O-])N(c2ccccc2[N+](=O)[O-])C1=O
inactive: dose: 50.0 mg/kg/injection, schedule: Q01DX009 (ip), vehicle: saline with Tween-80 88 % of control

FC(F)(F)c1nc2nc(Br)c(Br)nc2[nH]1
inactive: [3] 100 % of control | [1] 87 % of control | [4] 90 % of control | [2] 91 % of control

c1ccc([P+](C[P+](c2ccccc2)(c2ccccc2)c2ccccc2)(c2ccccc2)c2ccccc2)cc1
inactive: dose: 0.39 mg/kg/injection, schedule: Q01DX009 (ip), vehicle: Klucel (hydroxypropylcellulose) (HPC) 109 % of control | dose: 0.78 mg/kg/injection, schedule: Q01DX009 (ip), vehicle: Klucel (hydroxypropylcellulose) (HPC) 109 % of control | dose: 1.56 mg/kg/injection, schedule: Q01DX009 (ip), vehicle: Klucel (hydroxypropylcellulose) (HPC) 118 % of control | dose: 1.72 mg/kg/injection, schedule: Q04DX003 (ip), vehicle: Klucel (hydroxypropylcellulose) (HPC) 109 % of control | dose: 2.3 mg/kg/injection, schedule: Q01DX009 (ip), vehicle: Klucel (hydroxypropylcellulose) (HPC) 115 % of control | dose: 3.45 mg/kg/injection, schedule: Q04DX003 (ip), vehicle: Klucel (hydroxypropylcellulose) (HPC) 122 % of control | dose: 6.9 mg/kg/injection, schedule: Q04DX003 (ip), vehicle: Klucel (hydroxypropylcellulose) (HPC) 90 % of control

C1=CC2CC1C1CSCC21 (centres undefined)
inactive: dose: 0.03 mg/kg/injection, schedule: Q04DX003 (ip), vehicle: saline 100 % of control | dose: 0.06 mg/kg/injection, schedule: Q04DX003 (ip), vehicle: saline 91 % of control | dose: 0.13 mg/kg/injection, schedule: Q04DX003 (ip), vehicle: saline 95 % of control | dose: 0.19 mg/kg/injection, schedule: Q01DX009 (ip), vehicle: saline 95 % of control | dose: 0.27 mg/kg/injection, schedule: Q04DX003 (ip), vehicle: saline 100 % of control | dose: 0.39 mg/kg/injection, schedule: Q01DX009 (ip), vehicle: saline 104 % of control

CN(C)C(=O)c1cccc(NC(=O)Oc2ccccc2)c1
inactive: [3] 90 % of control | [4] 95 % of control

COCCNCCN1CCN(CCCN2c3ccccc3Sc3ccc(C(F)(F)F)cc32)CC1
inactive: dose: 20.0 mg/kg/injection, schedule: Q04DX003 (ip), vehicle: saline 105 % of control and 106 % of control | dose: 40.0 mg/kg/injection, schedule: Q04DX003 (ip), vehicle: saline 108 % of control and 113 % of control | dose: 80.0 mg/kg/injection, schedule: Q04DX003 (ip), vehicle: saline 120 % of control
